± gives the expanded uncertainty stated by the source.
How the values were obtained:
[1] = 101.3 kPa, Liquid
[2] = xn = mol fraction of the nth substance listed; conditions: 101.3 kPa, Liquid, x2 = 0

Row | mass density ([1]; 288.15 K) | mass density ([1]; 293.15 K) | mass density ([1]; 298.15 K) | mass density ([1]; 303.15 K) | mass density ([1]; 308.15 K) | mass density ([1]; 313.15 K) | mass density ([1]; 318.15 K) | mass density ([1]; 323.15 K) | mass density ([2]; 288.15 K) | mass density ([2]; 293.15 K) | mass density ([2]; 298.15 K) | mass density ([2]; 303.15 K) | mass density ([2]; 308.15 K) | mass density ([2]; 313.15 K) | mass density ([2]; 318.15 K) | mass density ([2]; 323.15 K) | Structure (SMILES)
1 | 810.689 ± 0.55 kg/m3 | 806.646 ± 0.56 kg/m3 | 802.528 ± 0.56 kg/m3 | 798.326 ± 0.57 kg/m3 | 794.03 ± 0.57 kg/m3 | 789.632 ± 0.58 kg/m3 | 785.117 ± 0.58 kg/m3 | 780.515 ± 0.59 kg/m3 |  |  |  |  |  |  |  |  | CCC(C)O (centres undefined) [butan-2-ol]
2 | 687.954 ± 0.64 kg/m3 | 683.733 ± 0.64 kg/m3 | 679.494 ± 0.65 kg/m3 | 675.229 ± 0.66 kg/m3 | 670.941 ± 0.66 kg/m3 | 666.621 ± 0.67 kg/m3 | 662.273 ± 0.68 kg/m3 | 657.896 ± 0.68 kg/m3 |  |  |  |  |  |  |  |  | CCCCCCC [heptane]
3 |  |  |  |  |  |  |  |  | 687.954 ± 0.64 kg/m3 | 683.733 ± 0.64 kg/m3 | 679.494 ± 0.65 kg/m3 | 675.229 ± 0.66 kg/m3 | 670.941 ± 0.66 kg/m3 | 666.621 ± 0.67 kg/m3 | 662.273 ± 0.68 kg/m3 | 657.896 ± 0.68 kg/m3 | CCCCCCC [heptane] + CCC(C)O

From the NIST ThermoML archive (doi:10.1021/je900715y)
